# From US8865448B2, “Aspergillus containing beta-glucosidase, beta-glucosidases and nucleic acids encoding the same” (Cleanvantage LLC, priority 2010, dated 2014)
# B1: Aspergillus saccharolyticus CBS 127449 beta-glucosidase BGL1, his-tagged, expressed in T. reesei, SEQ ID NO: 3 (without signal peptide SEQ ID NO: 4) … (protein)
# chain: DELAFASPFYPSPWANGQGEWADAYKRAVDIVSQMTLDEKVNLTTGTGWELEKCVGQTGGVPRLDIGGMCLQDSPLGVRDSDYNSGFPAGVNVAATWDRKLAYLRGQAMGQEFSDKGVDVQLGPAAGPLGRSPDGGRNWEGFSPDPALTGVLFAETIKGIQDAGVIATAKHYILNEQEHFRQVSEAAGYGFNISDTISSNIDDKTIHEMYLWPFADAVRAGVGAVMCSYNQINNSYACQNSYTLNKLLKSELGFQGFVMSDWGAHHSGVGSALAGLDMSMPGDVSFDSATSFWGTNLTVAVLNGTVPQWRVDDMAVRIMAAYYKVGRDRLYQPPNFSSWTRDEYGFKYYYSQEGPYEKVNQYVNVQRNHSEVIRKVGADSTVLLKNNNALPLTGKERKVALIGEDAGSNAYGANGCSDRGCDNGTLAMAWGSGTAEFPYLVTPEQAIQAEVLKNKGSTYTITDNWALSQVEALAKTASVSLVFVNADSGEGYISVDGNEGDRNNLTLWKNGDNLIKATASNCNNTIVVIHSVGAVLVDEWYDHPNVTAILWAGLPGQESGNSLADVLYGRVNPGGKTPFTWGKTRASYGDYLVREPNNGHGAPQDNFSEGVFIDYRGFDKRNETPIYEFGHGLSYTTFNYSGLQVEVLNTSSSTPVATQTKPAPTFGEIGNASDYLYPEGLDRITAFIYPWLNSTDLKESSGDPDYGVDTAKYIPAGATNSSAQPVLPAGGGFGGNPRLYDELIRVSVTVKNTGRVTGDAVPQLYVSLGGPNEPKVVLRQFDRITLRPSEETVWTTTLTRRDLSNWDVAAQDWVITSYPKKVHVGSSSRQLPLHAALPKVQ
# B2: BGL1: GH family 3 beta-glucosidase of Aspergillus saccharolyticus; his-tagged, expressed in T. reesei and purified for characterisation (protein, listed as Aspergillus saccharolyticus)
# chain: DELAFASPFYPSPWANGQGEWADAYKRAVDIVSQMTLDEKVNLTTGTGWELEKCVGQTGGVPRLDIGGMCLQDSPLGVRDSDYNSGFPAGVNVAATWDRKLAYLRGQAMGQEFSDKGVDVQLGPAAGPLGRSPDGGRNWEGFSPDPALTGVLFAETIKGIQDAGVIATAKHYILNEQEHFRQVSEAAGYGFNISDTISSNIDDKTIHEMYLWPFADAVRAGVGAVMCSYNQINNSYACQNSYTLNKLLKSELGFQGFVMSDWGAHHSGVGSALAGLDMSMPGDVSFDSATSFWGTNLTVAVLNGTVPQWRVDDMAVRIMAAYYKVGRDRLYQPPNFSSWTRDEYGFKYYYSQEGPYEKVNQYVNVQRNHSEVIRKVGADSTVLLKNNNALPLTGKERKVALIGEDAGSNAYGANGCSDRGCDNGTLAMAWGSGTAEFPYLVTPEQAIQAEVLKNKGSTYTITDNWALSQVEALAKTASVSLVFVNADSGEGYISVDGNEGDRNNLTLWKNGDNLIKATASNCNNTIVVIHSVGAVLVDEWYDHPNVTAILWAGLPGQESGNSLADVLYGRVNPGGKTPFTWGKTRASYGDYLVREPNNGHGAPQDNFSEGVFIDYRGFDKRNETPIYEFGHGLSYTTFNYSGLQVEVLNTSSSTPVATQTKPAPTFGEIGNASDYLYPEGLDRITAFIYPWLNSTDLKESSGDPDYGVDTAKYIPAGATNSSAQPVLPAGGGFGGNPRLYDELIRVSVTVKNTGRVTGDAVPQLYVSLGGPNEPKVVLRQFDRITLRPSEETVWTTTLTRRDLSNWDVAAQDWVITSYPKKVHVGSSSRQLPLHAALPKVQ
# modifications: His tag
# notes: GH family 3 beta-glucosidase of Aspergillus saccharolyticus; his-tagged, expressed in T. reesei and purified for characterisation
# Assays:
# [1] = target: T1, Aspergillus saccharolyticus CBS 127449 beta-glucosidase BGL1, his-tagged, expressed in T. reesei, SEQ ID NO: 3 (without signal peptide SEQ ID NO: 4) (Aspergillus saccharolyticus, UniProt G0X2F9); assay: Glucose inhibition, purified BGL1; type: biochemical; details: pNPG as substrate (5 mM), 50° C., pH 4.8
# T1 construct: mature form lacks signal peptide 1-19
# T1 sequence (G0X2F9 20-860): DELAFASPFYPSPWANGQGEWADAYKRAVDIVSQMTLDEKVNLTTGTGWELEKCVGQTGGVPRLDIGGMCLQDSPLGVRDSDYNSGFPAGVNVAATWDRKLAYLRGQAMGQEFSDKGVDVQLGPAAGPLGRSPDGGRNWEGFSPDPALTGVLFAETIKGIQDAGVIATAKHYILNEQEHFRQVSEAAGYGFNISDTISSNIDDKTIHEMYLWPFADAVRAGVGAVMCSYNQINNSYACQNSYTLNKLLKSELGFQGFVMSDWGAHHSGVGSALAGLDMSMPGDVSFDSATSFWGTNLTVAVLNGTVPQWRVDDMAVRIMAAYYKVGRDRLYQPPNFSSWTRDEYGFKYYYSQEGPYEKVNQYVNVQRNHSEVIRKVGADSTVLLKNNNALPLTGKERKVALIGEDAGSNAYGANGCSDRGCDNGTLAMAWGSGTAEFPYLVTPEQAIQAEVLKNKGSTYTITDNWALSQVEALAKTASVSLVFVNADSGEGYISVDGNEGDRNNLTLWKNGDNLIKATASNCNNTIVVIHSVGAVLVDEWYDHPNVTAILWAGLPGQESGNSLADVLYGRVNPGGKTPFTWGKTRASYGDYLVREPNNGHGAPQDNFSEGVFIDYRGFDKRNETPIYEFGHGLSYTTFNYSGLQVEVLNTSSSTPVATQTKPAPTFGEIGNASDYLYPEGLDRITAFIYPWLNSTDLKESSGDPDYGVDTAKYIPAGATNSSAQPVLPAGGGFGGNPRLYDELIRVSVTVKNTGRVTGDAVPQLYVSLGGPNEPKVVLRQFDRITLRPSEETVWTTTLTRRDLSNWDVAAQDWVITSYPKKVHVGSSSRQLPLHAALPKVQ
# Protocol: (§1) For testing glucose tolerance, 5 mM pNPG in NaCltrate buffer pH 4.8 was used as substrate with different glucose amounts added, ranging final glucose concentrations of 0-280 mM. The remaining activity (glucose tolerance) was measured spectrophotometrically by release of pNP at 50° C. reaction conditions, as described earlier. Triple determinations were performed. […] Triple determinations were performed.
# The his-tagged beta-glucosidases were purified on the ÄKTApurifier system with UNICORN software, using a HisTrap HP 5 ml […] column (GE Healthcare), run at a flow rate of 5 ml/min. The column was equilibrated with 5CV of binding buffer (20 mM sodium phosphate, 0.5M NaCl, pH 7.4), 100 ml sample was loaded onto the column, followed by washing with binding buffer till the absorbance reached the baseline. The his-tagged beta-glucosidases were eluted with 3CV elution buffer (20 mM sodium phosphate, 0.5M NaCl, 500 mM imidazole, pH 7.4) and the peak (1 CV) collected by monitoring the absorbance.
# (§2) Michaelis Menten kinetics, glucose tolerance, termostability, pH optimum, and cellodextrin hydrolysis were carried out as described in EXAMPLE 1.
# [2] = test system: Aspergillus saccharolyticus (strain AP, CBS 127449) beta-glucosidases, crude enzyme extract; assay: Glucose tolerance / product inhibition, crude extract of strain AP; type: biochemical
# Protocol: The fungal strain AP/Aspergillus saccharolyticus was grown on potato dextrose agar (Sigma) for sporulation. Spores were harvested after 7 days of growth by adding sterile water to the plate and scrape on the surface of the culture. The heavy spore suspension was filtered through Myra cloth. Two ml of the spore solution was inoculated into 200 ml seed medium (2.0 g/l wheat bran, 5 g/l corn steep powder, 0.25 g/l yeast extract, 0.75 g/l peptone, 1.4 g/l (NH4)2SO4, 2.0 g/l KH2PO4, 0.4 g/l CaCl2 2H2O, 0.3 g/l MgSO4H2O, 5.0 mg/l FeSO4, 1.6 mg/l MnSO4 7H2O, 1.4 mg/l ZnSO4 7H2O, 2.0 CoCl2 6H2O) in an 500 ml Erlenmeyer flask, and incubated at 30° C. for 2 days, shaking at 160 rpm. Solid state fermentation at approximately 30% TS was carried out adding 100 ml of the cultivated seed medium to 1 l of a solid state fermentation medium comprising of 343 g wheat bran (TS of 87.4%), 9 g corn steep powder, 557 ml Czapek liquid (3 g/l NaNO3, 1 g/l K2HPO4, 0.5 g/l KCl, 0.5 g/l MgSO4 7H2O, 0.01 g/l FeSO4 7H2O) (Samson et al., 2004a). […] The samples were incubated at 30° C. without shaking. After 7 days incubation, liquid was extracted from the medium by pressing the medium by hand using gloves. The extract was centrifuged at 10000 g, and the supernatant filtered through Whatman filter paper.
# […] The remaining activity (glucose tolerance) was measured spectrophotometrically by release of pNP at 50° C. reaction conditions, as described earlier. Triple determinations were performed. […] Triple determinations were performed.
# [3] = test system: Novozym 188 beta-glucosidase (Aspergillus niger), commercial preparation; assay: Glucose tolerance / product inhibition, Novozym 188; type: biochemical
# Protocol: as §1
# [4] = test system: Cellic CTec beta-glucosidases, commercial preparation; assay: Glucose tolerance / product inhibition, Cellic CTec; type: biochemical
# Protocol: as §1
# [5] = substrate: OC[C@H]1O[C@@H](O[C@H]2[C@H](O)[C@@H](O)C(O)O[C@@H]2CO)[C@H](O)[C@@H](O)[C@@H]1O; assay: purified protein, by the assay type; details: other: cellobiose as substrate, 50° C., pH 4.8, Hanes plot
# [6] = Hydrolysis of cellodextrins (cellohexaose); type: biochemical; details: 50 C, pH 4.8, 30 min time course
# Protocol: Hydrolysis of cellohexaose was carried out by mixing, in the ratio 1:1, 0.2 mM cellohexaose in 50 mM NaCltrate buffer pH 4.8 and enzyme diluted in 50 mM NaCltrate buffer pH 4.8 to a concentration of 3.7 μg/ml. The reaction was incubated at 50° C. and for a period of 30 min, 100 μl sample was placed on ice every 5 min. 100 μl 200 mM NaOH was added to terminate the reaction, and after another 1 fold dilution with 100 mM NaOH, the samples were analyzed at Dionex ICS3000 using gradient elution: 0-30% eluent B in 26 min followed by 2 min washing with 50% eluent B (0.5 M NaAcetate in 100 mM NaOH) and 5 min re-equilibrating with 100% eluent A (100 mM NaOH).
# as §2
# [7] = pH profile of beta-glucosidase activity on pNPG; type: biochemical; details: 50 C
# Protocol: For testing the pH optimum of the enzyme extracts, they were assayed at 50° C. with 5 mM pNPG in Citrate Phosphate buffer at different pH ranging from 2.65 to 7.25. Endoglucanase activity of Celluclast 1.5 L was assayed with AZO-CMC as described by the manufacturer (Megazyme), but testing the same pH range 2.65-7.25 as for the pNPG assay.
# as §2
# [8] = Thermostability: remaining beta-glucosidase activity after incubation at different temperatures; type: physicochemical
# Protocol: For testing the thermostability of the enzyme extract, aliquots of the extracts were incubated in PCR tubes in a thermocycler with temperature gradient option at 12 different temperatures from 48.5 to 67.0° C. for different time periods (0-4 hours) followed by assaying the activity at 50° C. with 5 mM pNPG in NaCltrate buffer pH 4.8 as substrate. The rate of denaturation, kD, was calculated as the slope of a semi-logaritmic plot of remaining activity vs incubation time. The half life was calculated as: T1/2=ln(2)/kD.
# as §2
# [9] = cellobiose as substrate, product and substrate in equal concentrations
# [10] = cellobiose as substrate, twice the concentration of glucose compared to cellobiose
# [11] = pNPG as substrate, product concentration 12 times higher than the substrate concentration
molecule,measurement,setting,value
OC[C@H]1OC(O)[C@H](O)[C@@H](O)[C@@H]1O (stereo partly drawn) [glucose],product (glucose) concentration at reduction in activity to 50%,[1],30 times greater than the substrate concentration
same,"glucose concentration at half the maximum activity, relative to substrate concentration",[2]; 5 mM pNPG as substrate,36 × the substrate concentration
same,remaining activity with glucose,[2]; [9],around 80%
same,remaining activity with glucose,[2]; [10],50%
same,remaining activity with glucose,[2]; [11],> 80%
same,"glucose concentration at half the maximum activity, relative to substrate concentration",[3]; 5 mM pNPG as substrate,12 × the substrate concentration
same,IC50,"[3]; 5 mM pNPG as substrate, 50° C., pH 4.8, calculated, read-out: glucose concentration at half the maximum activity",60 mM
same,remaining activity with glucose,[3]; [9],around 80%
same,remaining activity with glucose,[3]; [10],50%
same,remaining activity with glucose,[3]; [11],below 40%
same,"glucose concentration at half the maximum activity, relative to substrate concentration",[4]; 5 mM pNPG as substrate,23 × the substrate concentration
same,remaining activity with glucose,[4]; [11],approx 75%
B1,Km,[5],1900 µM
B2,mode of action in hydrolysis of cellohexaose,[6],hydrolyzes the different cellodextrins through exohydrolase action
same,activity at basic conditions,[7],below 10%
same,activity within pH range 3.8-4.8,[7],above 90 % of maximum
same,pH optimum,[7],~4.2 pH
same,activity retained after 2 hours of incubation,[8]; 60 C,more than 90%
same,activity retained after 4 hours of incubation,[8]; 60 C,more than 70%
same,activity retained after 2 hours of incubation,[8]; 67 C,approx. 10%
same,stability at 50 C,[8]; purified BGL1,stable throughout the incubation period
same,half-life,"[8]; purified BGL1, from 62 C up to 65 C",less than 2.5 hours
same,calculated half-life,"[8]; purified BGL1, temperatures above 60 C",approximately 6 hours
same,stability at temperatures up to 58 C,[8]; up to four hours of incubation,fairly stable
